Source: patent US10265298B2, “Method of increasing the bioavailability of silybin” (Macau University of Science and Technology, priority 2017, dated 2019)

Tests used:
Caco-2 cells = experiment: Glucuronidation of silybin in Caco-2 cells (LC-MS peak area of silybin glucuronides); assay type: in vitro ADME, human; details: silybin 10 μM, test compound 20 μM co-incubation; for inhibition at 20 µM: Homo sapiens, Caco-2, read-out: inhibition on the glucuronide conjugation of silybin
Experimental: The analysis of silybin and total concentrations of glucuronides and sulfates was performed on an Agilent HP 1100 LC-MS system (Agilent, CA). A Waters ACQUITY UPLC® BEH C18 Column (1.7 μm, 2.1×50 mm, Waters Corp., Ireland) was used for detection with a C18 Security Guard cartridge (4×2.0 mm i.d., Phenomenex, Torrance, Calif.). Silybin A and silybin B were well separated using optimized gradient elution with methanol (mobile phase B) and 0.1% formic acid in water (mobile phase A) as mobile phase at a flow rate of 0.4 ml/min with a run time of 10 minutes. The gradient employed was as follows (time: mobile phase B percentage): 0 min: 25%, 6 minutes: 40%, 6.5 minutes: 25%.
MS parameters including: capillary voltage, −4000 V; nebulizer pressure, 40 pounds per square inch (psi); drying gas, 9 liters per minute (L/min); drying gas temperature, 325° C.; fragment voltage, 35 volts; dwell time, 200 milliseconds (ms); scan mode, selective ion monitoring (SIM) with [M-H]− for silybin (mass-to-charge ratio (m/z) 481), mono-glucuronide (m/z 657), and NG (m/z 271), respectively. LC-MS data were obtained by Agilent ChemStation Software.
Silybin is primarily metabolized to glucuronide (about 55%) and sulfate (about 28%) conjugates in human plasma after oral administration. To examine whether the co-incubation of flavonoids could affect the conjugation of silybin, the peak area of silybin glucuronides was measured by LC-MS (FIG. 6). Identification of glucuronides in the samples was based on their MS in-source fragmentations (m/z 657).

Caco-2 cell monolayers = experiment: Bidirectional transport across Caco-2 cell monolayers; details: Ko143 at 0.5 μM (BCRP inhibitor); quinidine at 20 μM (P-gp inhibitor)
Experimental: (§1) Human colorectal adenocarcinoma-2 (Caco-2) cells was obtained from American Type Culture Collection (Manassas, Va.) and frozen at −80° C. For transport study, cells were cultured at 37° C./5% CO2 in Dulbecco's modified Eagle's medium supplemented with 10% fetal bovine serum, 1% nonessential amino acids, and 1% penicillin-streptomycin. […] The culture medium was changed 24 hours after seeding to remove cell debris and dead cells; after which the medium was changed on alternate days. Monolayers were used for transport assays between 21 and 23 days for Caco-2 cells. Prior to transport study, cell monolayers were certified based on internal criteria on transepithelial electrical resistance (TEER) values.
(§2) Prior to transport study, cell monolayers were certified based on our internal criteria on transepithelial electrical resistance (TEER) values, and only monolayers that met the acceptance criteria (transepithelial electrical resistance >500 Ω·cm^2 for Caco-2 cells and >200 Ω·cm^2 for MDCK cells) were selected for transport studies.
(§3) Bidirectional transport assays in human colorectal adenocarcinoma 2 (Caco-2) and Madin-Darby canine kidney II (MDCK II) was carried out by dosing substrates in assay buffer to either the apical chamber (A-to-B) or the basolateral chamber (B-to-A); cells were then incubated at 37° C. with shaking at 50 rotations per minute (rpm), and 100 μl samples were collected at 30, 60, 90, 120 and 180 minutes from the basolateral chamber to study the drug transport of AP to BL, or apical chamber to study the drug transport of BL to AP. Cell monolayers were then washed twice with ice-cold assay buffer and lysed with methanol on ice for 10 minutes. For inhibition studies, Caco-2 or MDCK II cell monolayers were pre-incubated with an inhibitor in both apical and basolateral chambers for 30 minutes, and bidirectional transport of 10 μM silybin was conducted in the absence (control) or presence of the inhibitor in both chambers. […] For fluorescence intensity detection, samples collected from AP or BL side were immediately detected in 96 well black plate by Microplate ultraviolet-visible spectroscopy (UV/VIS) spectrophotometer (TECAN infinite M200 PRO, Männedorf, Switzerland). In all cases, each determination was performed in triplicate.
(§4) The apparent permeability coefficients (Papp) were calculated as Papp=dQ/dt×1/(C“0”A) where dQ/dt (mM/sec) is the rate of permeation of the drug across the cells, C0 (millimolar (mM)) is the donor compartment concentration at time zero and A (cm^2) is the area of the cell monolayer. C0 is obtained from analysis of the dosing solution at the start experiment. Efflux Ratio (ER)=Papp (B to A)/Papp (A to B), while Papp (B−A) is the Papp value measured in the B to A direction, and Papp (A−B) is the Papp value measured in the A to B direction. 1.5 Preparation of Rat Sandwich-Cultured Hepatocytes

MRP2 = MRP2 (Homo sapiens, UniProt Q92887); experiment: cell-based; details: dog, 180 min
Chain of MRP2 (Q92887 whole entry): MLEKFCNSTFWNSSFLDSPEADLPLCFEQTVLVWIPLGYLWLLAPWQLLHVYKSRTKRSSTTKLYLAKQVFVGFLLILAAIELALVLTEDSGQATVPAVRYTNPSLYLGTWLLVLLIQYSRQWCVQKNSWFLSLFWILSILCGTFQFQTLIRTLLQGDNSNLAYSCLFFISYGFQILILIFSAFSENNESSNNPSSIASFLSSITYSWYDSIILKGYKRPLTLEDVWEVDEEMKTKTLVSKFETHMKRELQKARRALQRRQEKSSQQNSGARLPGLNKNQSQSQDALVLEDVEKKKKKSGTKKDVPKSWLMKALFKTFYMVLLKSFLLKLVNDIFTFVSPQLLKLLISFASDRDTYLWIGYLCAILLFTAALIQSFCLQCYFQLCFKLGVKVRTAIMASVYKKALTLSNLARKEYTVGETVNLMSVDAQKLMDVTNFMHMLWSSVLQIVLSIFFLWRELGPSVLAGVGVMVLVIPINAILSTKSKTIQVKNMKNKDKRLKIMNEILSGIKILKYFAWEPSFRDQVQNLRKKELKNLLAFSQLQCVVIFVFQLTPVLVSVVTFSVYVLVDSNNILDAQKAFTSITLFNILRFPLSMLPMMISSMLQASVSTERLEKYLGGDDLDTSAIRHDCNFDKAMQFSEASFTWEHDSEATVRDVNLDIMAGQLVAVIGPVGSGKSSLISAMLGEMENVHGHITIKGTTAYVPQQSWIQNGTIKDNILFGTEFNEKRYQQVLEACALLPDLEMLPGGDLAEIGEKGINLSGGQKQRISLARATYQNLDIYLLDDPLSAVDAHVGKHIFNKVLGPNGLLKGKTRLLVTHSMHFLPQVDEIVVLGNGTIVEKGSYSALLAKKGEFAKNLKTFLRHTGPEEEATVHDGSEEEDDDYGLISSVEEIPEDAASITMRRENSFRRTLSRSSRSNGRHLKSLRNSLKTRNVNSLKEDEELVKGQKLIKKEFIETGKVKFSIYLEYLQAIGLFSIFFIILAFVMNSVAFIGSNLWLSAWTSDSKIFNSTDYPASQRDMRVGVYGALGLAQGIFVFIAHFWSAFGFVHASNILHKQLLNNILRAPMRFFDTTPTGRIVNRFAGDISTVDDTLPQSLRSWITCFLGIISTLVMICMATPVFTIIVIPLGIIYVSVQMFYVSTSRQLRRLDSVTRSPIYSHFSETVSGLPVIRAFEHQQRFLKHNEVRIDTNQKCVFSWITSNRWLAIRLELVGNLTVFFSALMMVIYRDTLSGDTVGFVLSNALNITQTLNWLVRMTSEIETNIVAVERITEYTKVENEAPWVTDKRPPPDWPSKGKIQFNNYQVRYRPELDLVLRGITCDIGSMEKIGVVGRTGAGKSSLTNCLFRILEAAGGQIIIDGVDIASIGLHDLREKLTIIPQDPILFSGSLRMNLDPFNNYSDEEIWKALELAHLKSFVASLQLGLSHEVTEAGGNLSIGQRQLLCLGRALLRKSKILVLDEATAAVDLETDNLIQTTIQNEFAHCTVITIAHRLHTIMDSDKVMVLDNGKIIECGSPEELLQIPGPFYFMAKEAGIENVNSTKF
Experimental: (§5) Parental Madin-Darby canine kidney II (MDCKII), multi-drug resistance gene 1-Madin-Darby canine kidney II (MDR1-MDCKII), breast cancer resistance protein-Madin-Darby canine kidney II (BCRP-MDCKII), and multi-drug resistance protein 2-Madin-Darby canine kidney II (MRP2-MDCKII) cells were kindly provided by the Netherlands Cancer Institute (Amsterdam, Netherlands) and frozen at −80° C. The MDCKII cells were cultured at 37° C./5% CO2 in Dulbecco's modified Eagle's medium supplemented with 10% fetal bovine serum, 1% nonessential amino acids, and 2% penicillin-streptomycin. The cells were seeded on transwell inserts (Corning Inc.) at a density of 2.0×10^5 cells/cm^2 and grown for 4-5 days to form confluent monolayers.
as §3, §4
(§6) (*, P<0.05;**, P<0.01; ***, P<0.001 vs absence of any inhibitor. n=3).
as §6

in vitro = in vitro ADME, rat; details: male, Sprague Dawley, rat
Experimental: Sandwich-cultured rat hepatocytes (SCHs) were established according to previously described methods with minor modifications. Primary rat hepatocytes were isolated from male Sprague Dawley® (SD) rats (220-270 g) using a collagenase perfusion as described previously and plated at a density of 7.4×10^5 cells/2 ml/well onto six-well BioCoat plates. Approximately 24 hours later, hepatocytes were overlaid with 2 ml of 0.25 mg/ml BD Matrigel basement membrane matrix in Dulbecco's modified Eagle medium (DMEM) containing 1% volume by volume percentage (v/v) insulin/transferrin/selenium culture supplement, […] dexamethasone, 2 mM L-glutamine, 1% (v/v) minimum essential medium nonessential amino acids, 1% penicillin-streptomycin. Hepatocytes were cultured for 4 days to allow extensive formation of canalicular networks between cells before experimentation and the medium was changed daily.
Sandwich-cultured hepatocytes (SCHs) were pre-incubated in 2 milliliters (ml) of warm Hank's Balanced Salt Solution (HBSS) with or without Ca^2+ at 37° C. for 15 minutes; the tight junctions of the bile canaliculi open temporally after exposure to HBSS without Ca^2+. Subsequently, cells were incubated at 37° C. for 20 minutes with 1.5 ml of standard HBSS containing silybin (10 μM), or MK 571 (50 μM) as a positive control, or baicalein (25, 15.8, 5, 1.58, 0.5, 0.16 μM), or tangeretin (25, 15.8, 5, 1.58, 0.5 μM). After 20 min, cells were washed three times with ice-cold standard HBSS. The cell samples were lysed by sonication in 1 ml of water for 5 seconds with the ultrasonic cell disruption system (SONICS & […], INC., Newtown, Conn., USA). Conjugated silybin and unconjugated (free) silybin were quantified by high-performance liquid chromatography-tandem mass spectrometry (HPLC-MS/MS). Transport function was normalized to the protein content of the hepatocytes which was evaluated by bicinchoninic acid (BCA) protein assay (Pierce Chemical, Rockford, Ill.). The biliary excretion index (BEI; %) and in vitro biliary clearance (Clbiliary; ml/min/kg) were calculated by using B-CLEAR technology (Qualyst, Inc., Research Triangle Park, N.C.) based on the following equations: […]

[1] = Bidirectional transport across Caco-2 cell monolayers; details: human, Caco-2
Experimental: as §1, §2, §3, §4

BCRP = molecular target: T1, BCRP (Homo sapiens, UniProt Q9UNQ0); experiment: Inhibition of pheophorbide A (Ph A) efflux in MDCKII-BCRP cell monolayers
T1 sequence (Q9UNQ0 1-655): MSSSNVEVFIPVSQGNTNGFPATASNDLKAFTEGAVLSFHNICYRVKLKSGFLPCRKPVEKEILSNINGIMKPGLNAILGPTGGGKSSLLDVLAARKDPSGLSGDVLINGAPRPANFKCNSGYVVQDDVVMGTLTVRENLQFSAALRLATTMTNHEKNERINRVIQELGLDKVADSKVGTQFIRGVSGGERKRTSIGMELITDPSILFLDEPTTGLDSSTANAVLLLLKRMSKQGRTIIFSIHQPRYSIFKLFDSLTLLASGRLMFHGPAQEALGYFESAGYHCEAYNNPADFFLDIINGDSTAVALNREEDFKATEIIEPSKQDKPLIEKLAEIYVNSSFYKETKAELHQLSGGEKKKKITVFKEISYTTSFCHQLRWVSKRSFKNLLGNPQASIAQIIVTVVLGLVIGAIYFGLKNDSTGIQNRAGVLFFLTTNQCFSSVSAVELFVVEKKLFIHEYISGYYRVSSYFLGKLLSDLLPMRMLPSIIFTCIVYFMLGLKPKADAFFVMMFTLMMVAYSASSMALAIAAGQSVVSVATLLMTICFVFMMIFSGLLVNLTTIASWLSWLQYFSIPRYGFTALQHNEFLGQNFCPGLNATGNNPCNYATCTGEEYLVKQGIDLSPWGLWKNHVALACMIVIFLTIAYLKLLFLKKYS
Experimental: as §5, §3, §4, §6, §6

| Molecule | effect on glucuronide metabolites / glucuronide conjugation of silybin (Caco-2 cells) | inhibition at 20 µM (Caco-2 cells) | also measured |
| --- | --- | --- | --- |
| O=C(O[C@@H]1Cc2c(O)cc(O)cc2O[C@@H]1c1ccc(O)c(O)c1)c1cc(O)c(O)c(O)c1 [(−)-ECG] | did not significantly inhibit the conjugation | – | – |
| COc1ccc2c3c([nH]c2c1)[C@H](CC(C)C)N1C(=O)[C@H](CCC(=O)OC(C)(C)C)NC(=O)[C@@H]1C3 [Ko143, (3S,6S,12aS)-1,2,3,4,6,7,12,12a-octahydro-9-methoxy-6-(2-methylpropyl)-1,4-dioxo-pyrazino[1′,2′:1,6]pyrido[3,4-b]indole-3-propanoic acid 1,1-dimethylethyl ester] | – | – | effect of efflux transporter inhibitor on efflux/absorption of silybin (Caco-2 cell monolayers): inhibited the efflux ratio of silybin |
| CN(C)C(=O)CCSC(SCCC(=O)[O-])c1cccc(/C=C/c2ccc3ccc(Cl)cc3n2)c1.[Na+] (centres unmarked) [MK571, (E)-3-[[[3-[2-(7-chloro-2-quinolinyl)ethenyl]phenyl][[3-(dimethylamino)-3-oxopropyl]thio]methyl]thio]-propanoic acid, sodium salt] | almost undetected | – | efflux ratio of CDCFDA in the presence of inhibitor (MRP2): 1.11; inhibition at 20 min, 50 μM (in vitro): 100% |
| O=C(O)[C@H]1O[C@@H](Oc2cc3oc(-c4ccccc4)cc(=O)c3c(O)c2O)[C@H](O)[C@@H](O)[C@@H]1O [baicalin] | – | > 50% | – |
| COc1ccc2c(c[n+](C)c3c4cc5c(cc4ccc23)OCO5)c1OC [chelerythrine] | did not significantly inhibit the conjugation | – | – |
| O=c1cc(-c2ccccc2)oc2cc(O)cc(O)c12 [chrysin] | – | > 50% | – |
| COc1cc(/C=C/C(=O)CC(=O)/C=C/c2ccc(O)c(OC)c2)ccc1O [curcumin] | – | > 50% | – |
| O=C1c2c(O)cc(O)cc2O[C@H](c2cc(O)c(O)c(O)c2)[C@H]1O [dihydromyricetin] | – | > 50% | – |
| COc1ccc(-c2cc(=O)c3c(O)cc(O)cc3o2)cc1O [diosmetin] | almost undetected | – | – |
| O=c1c(O)c(-c2ccc(O)c(O)c2)oc2cc(O)ccc12 [fisetin] | – | > 50% | – |
| O=c1c(O)c(-c2ccccc2)oc2cc(O)cc(O)c12 [galangin] | almost undetected | – | – |
| O=c1c(-c2ccc(O)cc2)coc2cc(O)cc(O)c12 [genistein] | – | – | Papp at 180 min [1]: 13 ×10⁻⁶ cm/s |
| COc1ccc([C@@H]2CC(=O)c3c(O)cc(O[C@@H]4O[C@H](CO[C@@H]5O[C@@H](C)[C@H](O)[C@@H](O)[C@H]5O)[C@@H](O)[C@H](O)[C@H]4O)cc3O2)cc1O [hesperidin] | did not significantly inhibit the conjugation | – | – |
| COc1cc(-c2oc3cc(O)cc(O)c3c(=O)c2O)ccc1O [isorhamnetin] | – | > 50% | – |
| COc1ccc(-c2oc3cc(O)cc(O)c3c(=O)c2O)cc1 [kaempferide] | – | > 50% | – |
| O=c1c(O)c(-c2ccc(O)cc2)oc2cc(O)cc(O)c12 [kaempferol] | – | > 50% | – |
| O=c1cc(-c2ccc(O)c(O)c2)oc2cc(O)cc(O)c12 [luteolin] | almost undetected | – | – |
| O=c1c(O)c(-c2ccc(O)cc2O)oc2cc(O)cc(O)c12 [morin] | almost undetected | – | – |
| O=c1c(O)c(-c2ccc(O)c(O)c2)oc2cc(O)cc(O)c12 [quercetin] | – | > 50% | – |
| Oc1ccc(C=Cc2cc(O)cc(O)c2)cc1 [resveratrol] | almost undetected | – | – |
| pheophorbide A [Ph A] | – | – | mean efflux ratio of pheophorbide A (Ph A) (BCRP): 2.82 |
